{
  "source": "patent US20230417740A1",
  "about": "“TISSUE-MIMICKING HYDROGEL COMPOSITIONS FOR BIOFABRICATION” (Wake Forest University Health Sciences, priority 2014, published 2023)",
  "test_system": "bioprinted liver organoids",
  "type": "cell-based",
  "conditions": "20 mM NAC with 10 mM APAP, general trend of the data",
  "data": [
    {"smiles": "CC(=O)N[C@@H](CS)C(=O)O", "note": "[NAC, N-acetyl-L-cysteine]", "values": [
      {"measurement": "rescue of liver organoids from APAP insult", "result": "can be rescued"}
    ]}
  ]
}
